Test results as given in US8518957B2, “Methanocarba adenosine derivatives, pharmaceutical compositions, and method of reducing intraocular pressure” (The United States of America, as represented by the …, priority 2009, dated 2013).

Key:
human A3AR [1] = target: T1, human A3AR (Homo sapiens, UniProt P0DMS8); assay: Cyclic AMP accumulation assay: inhibition of forskolin-stimulated cyclic AMP production in AR-transfected CHO cells; format: cell-based; conditions: for % Inhibition of cAMP formation at hA3 AR: at 10 μM, in comparison to the maximal effect of full agonist NECA at 10 μM
T1 construct: expressed in transfected cells
T1 sequence (P0DMS8 1-318): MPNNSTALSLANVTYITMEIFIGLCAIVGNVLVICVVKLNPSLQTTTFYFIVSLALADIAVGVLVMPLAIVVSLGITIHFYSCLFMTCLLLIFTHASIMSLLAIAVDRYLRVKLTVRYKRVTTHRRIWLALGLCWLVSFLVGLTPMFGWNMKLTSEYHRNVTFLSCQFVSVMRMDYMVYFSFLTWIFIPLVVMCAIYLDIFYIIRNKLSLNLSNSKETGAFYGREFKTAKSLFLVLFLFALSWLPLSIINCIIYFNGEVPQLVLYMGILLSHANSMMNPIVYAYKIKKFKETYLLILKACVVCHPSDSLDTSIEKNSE
Protocol: Intracellular cyclic AMP levels were measured with a competitive protein binding method. […] CHO cells that expressed the recombinant human A3AR were harvested by trypsinization. After centrifugation and resuspended in medium, cells were planted in 24-well plates in 1.0 mL medium. After 24 h, the medium was removed and cells were washed three times with 1 mL DMEM, containing 50 mM HEPES, pH 7.4. […] After 45 min forskolin (10 μM) was added to the medium, and incubation was continued for an additional 15 min. […] The cell lysate was resuspended and stored at −20° C. For determination of cyclic AMP production, protein kinase A (PKA) was incubated with [^3H]cyclic AMP (2 nM) in K2HPO4/EDTA buffer (K2HPO4, 150 mM; EDTA, 10 mM), 20 μL of the cell lysate, and 30 μL 0.1 M HCl or 50 μL of cyclic AMP solution (0-16 pmol/200 μL for standard curve). Bound radioactivity was separated by rapid filtration through Whatman GF/C filters and washed once with cold buffer. Bound radioactivity was measured by liquid scintillation spectrometry.
Bound radioactivity was separated by rapid filtration through Whatman GF/C filters and washed the filters once with cold buffer. Bound radioactivity was measured with liquid scintillation spectrometry.

human A3AR [2] = target: T1, human A3AR; assay: Radioligand binding at human A3 AR ([125I]I-AB-MECA, membranes of CHO cells); conditions: for Ki: [125I]38, CHO cells, read-out: Affinity (Ki, nM), A3
How it was run: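 Membranes came from CHO cells stably expressing hA3R, pretreated with adenosine deaminase (3 units/mL). Competition with agonist radioligand was run in 50 mM Tris-HCl pH 7.5, 10 mM MgCl2 for 60 min at 25 °C, followed by GF/B filtration and γ-counting. Ki values derived.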

| Compound | % Inhibition of cAMP formation at hA3 AR (human A3AR [1]) [%] | % Inhibition of cAMP accumulation at the hA3AR (human A3AR [1]; concentration 10 μM, in comparison to full agonist NECA at 1 μM) [%] | Ki (human A3AR [2]) [nM] | selectivity for the hA3AR in comparison to the hA1 and hA2A ARs (human A3AR [2]; radioligand binding inhibition curves, figure legends) |
| --- | --- | --- | --- | --- |
| CNC(=O)[C@@]12C[C@@H]1[C@@H](n1cnc3c(NCc4cccc(Cl)c4)nc(C#CCCCCc4cn(-c5ccc(F)c([N+](=O)[O-])c5)nn4)nc31)[C@H](O)[C@@H]2O [Compound 11] | 116 ± 22 |  | 10.6 ± 3.8 |  |
| CNC(=O)[C@@]12C[C@@H]1[C@@H](n1cnc3c(NCc4cccc(Cl)c4)nc(C#CCCCCc4cn(-c5ccc(N)cc5)nn4)nc31)[C@H](O)[C@@H]2O [Compound 12, (1S,2R,3S,4R,5S)-4′-(6-(3-Chlorobenzylamino)-2-(6-(1-(4-amino-phenyl)-1H-1,2,3-triazol-4-yl)hex-1-ynyl)-9H-purin-9-yl)-2′,3′-dihydroxybicyclo[3.1.0]hexane-1′-carboxylic acid N-methylamide] | 44.3 ± 2.4 |  | 87.1 ± 13.1 |  |
| CNC(=O)[C@@]12C[C@@H]1[C@@H](n1cnc3c(NCc4cccc(Cl)c4)nc(C#CCCCCc4cn(-c5ccc(C(=O)CBr)cc5)nn4)nc31)[C@H](O)[C@@H]2O [Compound 14, (1S,2R,3S,4R,5S)-6-(3-Chlorobenzylamino)-4-(2-(6-(4-(2-bromoacetyl)phenyl)-1H-1,2,3-triazol-4-yphex-1-ynyl)-9H-purin-9-yl)-2′,3′-dihydroxybicyclo[3.1.0]hexane-1′-carboxylic acid N-methylamide] | 109 ± 12 |  | 9.6 ± 1.3 |  |
| CNC(=O)[C@@]12C[C@@H]1[C@@H](n1cnc3c(NCc4cccc(Cl)c4)nc(C#CCCCCc4cn(C56CC7CC(CC(C7)C5)C6)nn4)nc31)[C@H](O)[C@@H]2O [Compound 18, (1S,2R,3S,4R,5S)-6-(3-Chlorobenzylamino)-(2-(6-(1-(adamantyl)-1H-1,2,3-triazol-4-yl)hex-1-ynyl)-9H-purin-9-yl)-2′,3′-dihydroxybicyclo[3.1.0]hexane-1′-carboxylic acid N-methylamide] | 27.8 ± 17.4 |  | 6.5 ± 0.5 | highly selective |
| CNC(=O)[C@@]12C[C@@H]1[C@@H](n1cnc3c(NCc4cccc(Cl)c4)nc(C#CCCCCc4cn(CCCCCCNC(=O)CCCC[C@@H]5SC[C@@H]6NC(=O)N[C@@H]65)nn4)nc31)[C@H](O)[C@@H]2O [Compound 20, (1S,2R,3S,4R,5S)-6-(3-Chlorobenzylamino)-(2-(6-(1-(6-(5-(3aS,4S,6aR)-oxohexahydro-1H-thieno[3,4-d]imidazol-4-yl)pentanamido)hexyl-1H-1,2,3-triazol-4-yl)hex-1-ynyl)-9H-purin-9-yl)-2′,3′-dihydroxybicyclo[3.1.0]hexane-1′-carboxylic acid N-methylamide] | 55.6 ± 12.5 |  | 285 ± 54 |  |
| CNC(=O)[C@@]12C[C@@H]1[C@@H](n1cnc3c(NCc4cccc(Cl)c4)nc(C#CCCCCc4cn(CCCCCCNC(=O)c5ccc(-c6c7ccc(=N)c(S(=O)(=O)O)c-7oc7c(S(=O)(=O)O)c(N)ccc67)c(C(=O)O)c5)nn4)nc31)[C@H](O)[C@@H]2O [Compound 23] | 37.8 ± 14.6 |  | 416 ± 45 |  |
| CNC(=O)[C@@]12C[C@@H]1[C@@H](n1cnc3c(NCc4cccc(Cl)c4)nc(-c4nnn(-c5ccc(N=C=S)cc5)c4CCCCc4cn(-c5ccc(N=C=S)cc5)nn4)nc31)[C@H](O)[C@@H]2O [Compound 25, (1S,2R,3S,4R,5S)-6-(3-Chlorobenzylamino)-(2-(1,6-bis(4-isothiocyante-phenyl)-1H-bis(1,2,3-triazol-4-yl)hex-1-ynyl)-9H-purin-9-yl)-2′,3′-dihydroxybicyclo[3.1.0]hexane-1′-carboxylic acid N-methylamide] | 83.6 ± 7.2 |  | 8.8 ± 1.3 |  |
| CNC(=O)[C@@]12C[C@@H]1[C@@H](n1cnc3c(NCc4cccc(Cl)c4)nc(C#CCCCCc4cn(-c5ccc(N=C=S)cc5)nn4)nc31)[C@H](O)[C@@H]2O [Compound 26, (1S,2R,3S,4R,5S)-6-(3-Chlorobenzylamino)-(2-(6-(1-(4-isothiocyante-phenyl)-1H-1,2,3-triazol-4-yl)hex-1-ynyl)-9H-purin-9-yl)-2′,3′-dihydroxybicyclo[3.1.0]hexane-1′-carboxylic acid N-methylamide] | 19.5 ± 14.5 |  | 37.5 ± 16 |  |

Continued by falling Ki (human A3AR [2]), values first:

| % Inhibition of cAMP formation at hA3 AR (human A3AR [1]) [%] | % Inhibition of cAMP accumulation at the hA3AR (human A3AR [1]; concentration 10 μM, in comparison to full agonist NECA at 1 μM) [%] | Ki (human A3AR [2]) [nM] | selectivity for the hA3AR in comparison to the hA1 and hA2A ARs (human A3AR [2]; radioligand binding inhibition curves, figure legends) | Compound |
| --- | --- | --- | --- | --- |
| 41.8 ± 11.3 |  | 235 ± 43 |  | CNC(=O)[C@@]12C[C@@H]1[C@@H](n1cnc3c(NCc4cccc(Cl)c4)nc(C#CCCCCc4cn(CCCCCCC(=O)NCCCCCCNC(=O)CCCC[C@@H]5SC[C@@H]6NC(=O)N[C@@H]65)nn4)nc31)[C@H](O)[C@@H]2O [Compound 21] |
| 83.4 ± 13.1 |  | 180 ± 23 |  | CNC(=O)[C@@]12C[C@@H]1[C@@H](n1cnc3c(NCc4cccc(Cl)c4)nc(C#CCCCCc4cn(-c5ccc(C(=O)O)cc5)nn4)nc31)[C@H](O)[C@@H]2O [Compound 13, (1S,2R,3S,4R,5S)-4′-(6-(3-Chlorobenzylamino)-2-(6-(1-(4-carboxyl-phenyl)-1H-1,2,3-triazol-4-yl)hex-1-ynyl)-9H-purin-9-yl)-2′,3′-dihydroxybicyclo[3.1.0]hexane-1′-carboxylic acid N-methylamide] |
| 75.9 ± 16.5 |  | 102 ± 25 |  | CNC(=O)[C@@]12C[C@@H]1[C@@H](n1cnc3c(NCc4cccc(Cl)c4)nc(C#CCCCCc4cn(Cc5ccc(-n6sccc6=O)cc5)nn4)nc31)[C@H](O)[C@@H]2O [Compound 19, (1S,2R,3S,4R,5S)-6-(3-Chlorobenzylamino)-(2-(1-(4-3-oxoisothiazol-2(3H)-yl)benzyl-1H-1,2,3-triazol-4-yphex-1-ynyl)-9H-purin-9-yl)-2′,3′-dihydroxybicyclo[3.1.0]hexane-β-carboxylic acid N-methylamide] |
| 59.7 ± 19.2 |  | 89.5 ± 12.6 |  | CNC(=O)[C@@]12C[C@@H]1[C@@H](n1cnc3c(NCc4cccc(Cl)c4)nc(C#CCCCCc4cn(CCCCNC(C)=O)nn4)nc31)[C@H](O)[C@@H]2O [Compound 17, (1S,2R,3S,4R,5S)-6-(3-Chlorobenzylamino)-(2-(6-(1-(4-acetamidobutyl)-1H-1,2,3-triazol-4-yl)hex-1-ynyl)-9H-purin-9-yl)-2′,3′-dihydroxybicyclo[3.1.0]hexane-1′-carboxylic acid N-methylamide] |
| 64.4 ± 12.4 |  | 47 ± 1.8 |  | CNC(=O)[C@@]12C[C@@H]1[C@@H](n1cnc3c(NCc4cccc(Cl)c4)nc(C#CCCCCc4cn(CCCCN)nn4)nc31)[C@H](O)[C@@H]2O [Compound 16, (1S,2R,3S,4R,5S)-6-(3-Chlorobenzylamino)-(2-(6-(1-(4-aminobutyl)-1H-1,2,3-triazol-4-yl)hex-1-ynyl)-9H-purin-9-yl)-2′,3′-dihydroxybicyclo[3.1.0]hexane-1′-carboxylic acid N-methylamide] |
| 60.2 ± 17.0 | 60.2 ± 17.0 | 29.4 ± 9.8 |  | C#CCCCCC#Cc1nc(NCc2cccc(Cl)c2)c2ncn(C3C(O)C(O)C4(C(=O)NC)CC34)c2n1 (stereo not drawn) [Compound 9, (1′S, 2′R, 3′S, 4′S, 5′S)-4′-[6-(3-Chlorobenzylamino)-2-(1,7-octadiynyl)-9H-purin-9-yl]-2′,3′-dihydroxybicyclo[3.1.0]hexane-1′-carboxylic acid N-methylamide] |
| 93.6 ± 17.7 |  | 22.3 ± 1.6 |  | CNC(=O)[C@@]12C[C@@H]1[C@@H](n1cnc3c(NCc4cccc(Cl)c4)nc(C#CCCCCc4cn(CCNC(C)=O)nn4)nc31)[C@H](O)[C@@H]2O [Compound 15, (1S,2R,3S,4R,5S)-6-(3-Chlorobenzylamino)-(2-(6-(1-(4-acetamidoethyl)-1H-1,2,3-triazol-4-yl)hex-1-ynyl)-9H-purin-9-yl)-2′,3′-dihydroxybicyclo[3.1.0]hexane-1′-carboxylic acid N-methylamide] |
